Assays:
Assay type in all cases: cell-based, human
HEK293T cells = assay: alamarBlue cell viability assay, HEK293T
Protocol: FIGS. 8A-8B show alamarBlue cell viability assays. HEK293T or HCT116 cells were plated in 96-well plates 24 hrs before chemical treatment of 0.001, 0.01, 0.1, 1, 10, 50, and 100 μM CEM207 was added. Another group of cells were treated with all concentrations of CEM207 mentioned above along with 200 nM CEM87 in all samples. After 4 days of chemical exposure, cell growth was measured by fluorescence. […] HCT116 cells were stably infected with dCas9 and MS2-FKBP*x2 constructs and transfected with CXCR4 gRNA. After 24 hrs of 25 nM CEM207 treatment, ChIP-qPCR was performed at different base pair distances from the transcription start site of CXCR4 gene. […] Error bars represent the standard deviation.
AlamarBlue cell viability assay. HEK293T or HCT116 cells were placed in black 96-well plates with clear bottom. 24 hrs later, media was exchanged to include 0.001, 0.01, 0.1, 1, 10, 50, 100 μM concentrations of CEM207, or all CEM207 concentrations above along with 200 nM CEM87. After 4 days of chemical exposure, alamarBlue Cell Viability Reagent (Invitrogen, DAL1025) was added to each well. Cells were incubated at 37° C. for 4 hrs and fluorescence was read using the TECAN Infinite F200 Fluorescence Microplate Reader. IC50 values were calculated using GraphPad Prism 9.

[1] = test system: rAAV2 transgene expression (firefly luciferase); assay: rAAV2 SLF* CEM system dual luciferase assay, HEK293T Renilla, multiplicity of infection; settings: FIGS. 14B and 14C; 0, 10 or 100 nM CEM207; increasing vg/cell
Excerpt: It was investigated whether rAAV transgene expression can be epigenetically controlled. Rapid screening of CEM technology can be performed with dual liucierase assays. (FIG. 10). Briefly, a cell line can be stably transduced with Ef1a-Renilla, enabling normalization to cell number. The cells are then either infected with AAV or tranfected with plasmid and dosed with a chemical epigenetic modifier. Luminescence can then be measured with the Dual Lucieferase Reporter, commercially available from Promega. This approach is described in more detail in the methods section of the example. Gene activation can be described as normalized luciferase or fold change. A measure of total gene expression can be calculated by
Next, it was determined whether SLF*CEMs can regulate AAV. The cassette shown in FIG. 14A was inserted into rAAV2 and infected into HEK293T Renilla. […] Next, it was explored whether the cassette was truly modular by varying the promoter while retaining SLF* CEM successful activation of rAAV2. […]
Day 4 (72 h): Data was obtained using the Promega Dula Luciferase Reporter (DLR) assay: first, the cells were washed with 100 μL of PBS/well dropwise followed by 20 μL of 1× passive lysis buffer (PLB) added to each well. The cells were incubated for 15 minutes in PLB and the assay ran on pheraSTAR microplate reader with 100 μL of each DLR reagent, gain=3600.

[2] = test system: firefly luciferase expression cassette; assay: Transfection evaluating multiple promoters, SLF* CEM system, dual luciferase assay, 293T Renilla; settings: FIGS. 15A and 15B; ybTATA, miniCMV, Het, Ef1a core, hPGK; 0, 5, 15 or 50 nM CEM207
Protocol: Next, it was determined whether SLF*CEMs can regulate AAV. The cassette shown in FIG. 14A was inserted into rAAV2 and infected into HEK293T Renilla. […] Next, it was explored whether the cassette was truly modular by varying the promoter while retaining SLF* CEM successful activation of rAAV2.
Transfection Evaluating Multiple Promoters—SLF* CEM System with 0, 5, 15 or 50 nM CEM207:
Day 1 (0 h): 293T cells with stably infected Renilla under the control of full length Ef1a promoter were plated in a 96 well plate; 10 k cells/well, 100 μL media/well. All conditions were plated in biological triplicate.
Day 2 (24 h): A PEI transfection mixture of each construct (Jet, ybTATA, miniCMV, Ef1a core, and hPGK) was prepared and added to each well: 0.1 μg of DNA, 0.3 μL of PEI, and 4 μL of Opti-MEM per well, with PEI added last. Reagents were mixed well and incubated for 15 minutes. 4 μL of the appropriate transfection mixture was added to each well. […]
Day 5 (96 h): […] Data was obtained using the Promega Dula Luciferase Reporter (DLR) assay: first, the cells were washed with 100 μL of PBS/well dropwise followed by 20 μL of 1× passive lysis buffer (PLB) added to each well. The cells were incubated for 15 minutes in PLB and the assay ran on pheraSTAR microplate reader with 25 μL of each DLR reagent, gain=2000.

How did the IC50 (HEK293T cells; CEM207 treatment alone, 4 days of exposure) turn out when `CC[C@H](C(=O)N1CCCC[C@H]1C(=O)O[C@H](CCc1ccc(OC)c(OC)c1)c1cccc(OCC(=O)NCCOCCOCCNC(=O)C[C@@H]2N=C(c3ccc(Cl)cc3)c3c(sc(C)c3C)-n3c(C)nnc32)c1)c1cc(OC)c(OC)c(OC)c1` [CEM207, (R)-1-(3-((14-((S)-4-(4-Chlorophenyl)-2,3,9-trimethyl-6H-thieno[3,2-f][1,2,4]triazolo[4,3-a][1,4]diazepin-6-yl)-2,13-dioxo-6,9-dioxa-3,12-diazatetradecyl)oxy)phenyl)-3-(3,4-dimethoxyphenyl) propyl(S)-1-((S)-2-(3,4,5-trimethoxyphenyl)butanoyl) piperidine-2-carboxylate] was run?
Its IC50 is 106 nM.

What about the IC50 (HEK293T cells; treated simultaneously with 200 nM CEM87, 4 days of exposure) of the same compound?
The IC50 was 78.6 nM.

And the “activation of rAAV2 luciferase expression with viral titer escalation” value [1]?
The value was “compatible with viral titer escalation”.

And the “activation with varied minimal promoters” value [2]?
Its value is “tolerates a variety of minimal promoters”.

— patent US20250177566A1, “USE OF CHEMICAL EPIGENETIC MODIFIERS TO MODULATE GENE EXPRESSION” (The University of North Carolina at Chapel Hill, priority 2022, published 2025)
